Results: patent publication US20060073995A1, “Animal shampoo” (priority 2004, published 2006)

Test: Stability study of the shampoo solution at room temperature (active ingredient remaining)
Format: physicochemical
Description: Solution was stirred and stability studies were performed at room temperature

N-chloro-4-carboxybenzenesulfonamide disodium salt active ingredient remained (in Example 1 shampoo (1% active, pH just below 9), after 49 days): 84.8% | N-chloro-4-carboxybenzenesulfonamide disodium salt active ingredient remained (in Example 2 shampoo (1% active, pH 9), after 62 days): 100% | N-chloro-4-carboxybenzenesulfonamide disodium salt active ingredient remained (in Example 3 shampoo (1% active, pH 9), after 62 days): 88.1%
Substance: N-chloro-4-carboxybenzenesulfonamide disodium salt
